Columns and labels:
[1] = test system: birch pollen allergic patients; experiment: Skin prick testing of allergic patients; type: in vivo, human; settings: 100 μg/ml
Method: SPTs were performed on the individuals forearms as described ([…]. et al. (1997) J. Clin Invest. 99, 1673-168; Dreborg S: (1989) J. Am. Acad. DerMatol. 21, 820-821). […] In addition standardized skin prick solutions (birch pollen extract and histamine) (Allergopharma, Reinbek, Germany) were tested. Reactions were recorded 20 minutes after SPT by photography and by transferring the ballpoint pen-surrounded wheal area with a scotch tape to paper.

[2] = test system: IgE antibodies in sera from birch pollen allergic patients; experiment: ELISA detection of peptide- and rBet v 1-specific IgE antibodies; type: binding, human
Summary of the method: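 IgE binding detected by 1:1000 alkaline-phosphatase mouse monoclonal anti-human IgE after overnight 4 °C incubation with 1:3-diluted sera. Sera came from 60 birch pollen allergic patients (25 male, 35 female, age 19–60) and a non-atopic control.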

## CVDHTNFKYNYSVIEGGPIGDTLEKISNEIK [Peptide P6, Bet v 1-derived synthetic peptide, position aa 75-104, one cysteine added]
[1]; individual 1
  mean wheal diameter: 0 mm
[1]; individual 2
  mean wheal diameter: 0 mm
[1]; individual 3
  mean wheal diameter: 0 mm
[1]; individual 4
  mean wheal diameter: 0 mm
[1]; individual 5
  mean wheal diameter: 0 mm
[1]; individual 6 (allergic, without birch pollen allergy)
  mean wheal diameter: 0 mm
[2]; serum of NHS, non-allergic control individual
  IgE (OD): — (Dashes indicate reactivities below the cut-off level (OD=0.050))
[2]; serum of patient 1
  IgE (OD): — (Dashes indicate reactivities below the cut-off level (OD=0.050))
[2]; serum of patient 2
  IgE (OD): — (Dashes indicate reactivities below the cut-off level (OD=0.050))
[2]; serum of patient 3
  IgE (OD): — (Dashes indicate reactivities below the cut-off level (OD=0.050))
[2]; serum of patient 4
  IgE (OD): — (Dashes indicate reactivities below the cut-off level (OD=0.050))
[2]; serum of patient 5
  IgE (OD): — (Dashes indicate reactivities below the cut-off level (OD=0.050))
[2]; serum of patient 6
  IgE (OD): — (Dashes indicate reactivities below the cut-off level (OD=0.050))
[2]; serum of patient 7
  IgE (OD): — (Dashes indicate reactivities below the cut-off level (OD=0.050))
[2]; serum of patient 8
  IgE (OD): — (Dashes indicate reactivities below the cut-off level (OD=0.050))
[2]; serum of patient 9
  IgE (OD): — (Dashes indicate reactivities below the cut-off level (OD=0.050))
[2]; serum of patient 10
  IgE (OD): — (Dashes indicate reactivities below the cut-off level (OD=0.050))
[2]; serum of patient 11
  IgE (OD): — (Dashes indicate reactivities below the cut-off level (OD=0.050))
[2]; serum of patient 12
  IgE (OD): — (Dashes indicate reactivities below the cut-off level (OD=0.050))
[2]; serum of patient 13
  IgE (OD): — (Dashes indicate reactivities below the cut-off level (OD=0.050))
[2]; serum of patient 14
  IgE (OD): — (Dashes indicate reactivities below the cut-off level (OD=0.050))
[2]; serum of patient 15
  IgE (OD): — (Dashes indicate reactivities below the cut-off level (OD=0.050))
[2]; serum of patient 16
  IgE (OD): — (Dashes indicate reactivities below the cut-off level (OD=0.050))
[2]; serum of patient 17
  IgE (OD): — (Dashes indicate reactivities below the cut-off level (OD=0.050))
[2]; serum of patient 18
  IgE (OD): — (Dashes indicate reactivities below the cut-off level (OD=0.050))
[2]; serum of patient 19
  IgE (OD): — (Dashes indicate reactivities below the cut-off level (OD=0.050))
[2]; serum of patient 20
  IgE (OD): — (Dashes indicate reactivities below the cut-off level (OD=0.050))
[2]; serum of patient 21
  IgE (OD): — (Dashes indicate reactivities below the cut-off level (OD=0.050))
[2]; serum of patient 22
  IgE (OD): — (Dashes indicate reactivities below the cut-off level (OD=0.050))
[2]; serum of patient 23
  IgE (OD): — (Dashes indicate reactivities below the cut-off level (OD=0.050))
[2]; serum of patient 24
  IgE (OD): — (Dashes indicate reactivities below the cut-off level (OD=0.050))
[2]; serum of patient 25
  IgE (OD): — (Dashes indicate reactivities below the cut-off level (OD=0.050))
[2]; serum of patient 26
  IgE (OD): — (Dashes indicate reactivities below the cut-off level (OD=0.050))
[2]; serum of patient 27
  IgE (OD): — (Dashes indicate reactivities below the cut-off level (OD=0.050))
[2]; serum of patient 28
  IgE (OD): — (Dashes indicate reactivities below the cut-off level (OD=0.050))
[2]; serum of patient 29
  IgE (OD): — (Dashes indicate reactivities below the cut-off level (OD=0.050))
[2]; serum of patient 30
  IgE (OD): — (Dashes indicate reactivities below the cut-off level (OD=0.050))
[2]; serum of patient 31
  IgE (OD): — (Dashes indicate reactivities below the cut-off level (OD=0.050))
[2]; serum of patient 32
  IgE (OD): — (Dashes indicate reactivities below the cut-off level (OD=0.050))
[2]; serum of patient 33
  IgE (OD): — (Dashes indicate reactivities below the cut-off level (OD=0.050))
[2]; serum of patient 34
  IgE (OD): — (Dashes indicate reactivities below the cut-off level (OD=0.050))
[2]; serum of patient 35
  IgE (OD): — (Dashes indicate reactivities below the cut-off level (OD=0.050))
[2]; serum of patient 36
  IgE (OD): — (Dashes indicate reactivities below the cut-off level (OD=0.050))
[2]; serum of patient 37
  IgE (OD): — (Dashes indicate reactivities below the cut-off level (OD=0.050))
[2]; serum of patient 38
  IgE (OD): — (Dashes indicate reactivities below the cut-off level (OD=0.050))
[2]; serum of patient 39
  IgE (OD): — (Dashes indicate reactivities below the cut-off level (OD=0.050))
[2]; serum of patient 40
  IgE (OD): — (Dashes indicate reactivities below the cut-off level (OD=0.050))
[2]; serum of patient 41
  IgE (OD): — (Dashes indicate reactivities below the cut-off level (OD=0.050))
[2]; serum of patient 42
  IgE (OD): — (Dashes indicate reactivities below the cut-off level (OD=0.050))
[2]; serum of patient 43
  IgE (OD): — (Dashes indicate reactivities below the cut-off level (OD=0.050))
[2]; serum of patient 44
  IgE (OD): — (Dashes indicate reactivities below the cut-off level (OD=0.050))
[2]; serum of patient 45
  IgE (OD): — (Dashes indicate reactivities below the cut-off level (OD=0.050))
[2]; serum of patient 46
  IgE (OD): — (Dashes indicate reactivities below the cut-off level (OD=0.050))
[2]; serum of patient 47
  IgE (OD): — (Dashes indicate reactivities below the cut-off level (OD=0.050))
[2]; serum of patient 48
  IgE (OD): — (Dashes indicate reactivities below the cut-off level (OD=0.050))
[2]; serum of patient 49
  IgE (OD): — (Dashes indicate reactivities below the cut-off level (OD=0.050))
[2]; serum of patient 50
  IgE (OD): — (Dashes indicate reactivities below the cut-off level (OD=0.050))
[2]; serum of patient 51
  IgE (OD): — (Dashes indicate reactivities below the cut-off level (OD=0.050))
[2]; serum of patient 52
  IgE (OD): — (Dashes indicate reactivities below the cut-off level (OD=0.050))
[2]; serum of patient 53
  IgE (OD): — (Dashes indicate reactivities below the cut-off level (OD=0.050))
[2]; serum of patient 54
  IgE (OD): — (Dashes indicate reactivities below the cut-off level (OD=0.050))
[2]; serum of patient 55
  IgE (OD): — (Dashes indicate reactivities below the cut-off level (OD=0.050))
[2]; serum of patient 56
  IgE (OD): — (Dashes indicate reactivities below the cut-off level (OD=0.050))
[2]; serum of patient 57
  IgE (OD): — (Dashes indicate reactivities below the cut-off level (OD=0.050))
[2]; serum of patient 58
  IgE (OD): — (Dashes indicate reactivities below the cut-off level (OD=0.050))
[2]; serum of patient 59
  IgE (OD): — (Dashes indicate reactivities below the cut-off level (OD=0.050))
[2]; serum of patient 60
  IgE (OD): — (Dashes indicate reactivities below the cut-off level (OD=0.050))

From patent US7244431B2, “Allergy vaccines and their preparation” (priority 2000, dated 2007)
